The target in this assay is T1, WIZ (Homo sapiens, UniProt O95785+Q96SW2).
T1 construct: expressed in transfected cells
The assay is described as follows: Quantification of WIZ protein levels in HiBit tag fusion protein assay (WIZ HiBit assay in 293T cells). The class given is cell-based. Particulars: for Dmax at 25 µM / remaining activity at 25 µM: HEK-293T; for Dmax at 25 µM: 100 minus Amax at 25 uM, read-out: % degradation of WIZ (100-Amax); for remaining activity at 25 µM: DMSO-normalized, curve-fitted percentage of WIZ-HiBit remaining at 25 uM, read-out: WIZ Amax; for DC50: WIZ HiBit assay in 293T cells, 10-point, 5-fold dilution, highest concentration 25 μM, about 18 hours, read-out: WIZ AC50. In short, it runs like this: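 293T cells stably carrying single-copy HiBit-WIZ (HSVTK promoter) treated ~18 h at 37 °C with 10-point, 5-fold dilutions, top 25 μM. Lytic HiBit luminescence read; Amax is DMSO-normalised, curve-fitted % WIZ-HiBit remaining at 25 uM.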
Background: With HiBiT, luminescence reflects the tagged protein that the partner subunit can reach.

Counter-ions that a name gives are not always drawn.

T1 sequence (O95785 whole entry): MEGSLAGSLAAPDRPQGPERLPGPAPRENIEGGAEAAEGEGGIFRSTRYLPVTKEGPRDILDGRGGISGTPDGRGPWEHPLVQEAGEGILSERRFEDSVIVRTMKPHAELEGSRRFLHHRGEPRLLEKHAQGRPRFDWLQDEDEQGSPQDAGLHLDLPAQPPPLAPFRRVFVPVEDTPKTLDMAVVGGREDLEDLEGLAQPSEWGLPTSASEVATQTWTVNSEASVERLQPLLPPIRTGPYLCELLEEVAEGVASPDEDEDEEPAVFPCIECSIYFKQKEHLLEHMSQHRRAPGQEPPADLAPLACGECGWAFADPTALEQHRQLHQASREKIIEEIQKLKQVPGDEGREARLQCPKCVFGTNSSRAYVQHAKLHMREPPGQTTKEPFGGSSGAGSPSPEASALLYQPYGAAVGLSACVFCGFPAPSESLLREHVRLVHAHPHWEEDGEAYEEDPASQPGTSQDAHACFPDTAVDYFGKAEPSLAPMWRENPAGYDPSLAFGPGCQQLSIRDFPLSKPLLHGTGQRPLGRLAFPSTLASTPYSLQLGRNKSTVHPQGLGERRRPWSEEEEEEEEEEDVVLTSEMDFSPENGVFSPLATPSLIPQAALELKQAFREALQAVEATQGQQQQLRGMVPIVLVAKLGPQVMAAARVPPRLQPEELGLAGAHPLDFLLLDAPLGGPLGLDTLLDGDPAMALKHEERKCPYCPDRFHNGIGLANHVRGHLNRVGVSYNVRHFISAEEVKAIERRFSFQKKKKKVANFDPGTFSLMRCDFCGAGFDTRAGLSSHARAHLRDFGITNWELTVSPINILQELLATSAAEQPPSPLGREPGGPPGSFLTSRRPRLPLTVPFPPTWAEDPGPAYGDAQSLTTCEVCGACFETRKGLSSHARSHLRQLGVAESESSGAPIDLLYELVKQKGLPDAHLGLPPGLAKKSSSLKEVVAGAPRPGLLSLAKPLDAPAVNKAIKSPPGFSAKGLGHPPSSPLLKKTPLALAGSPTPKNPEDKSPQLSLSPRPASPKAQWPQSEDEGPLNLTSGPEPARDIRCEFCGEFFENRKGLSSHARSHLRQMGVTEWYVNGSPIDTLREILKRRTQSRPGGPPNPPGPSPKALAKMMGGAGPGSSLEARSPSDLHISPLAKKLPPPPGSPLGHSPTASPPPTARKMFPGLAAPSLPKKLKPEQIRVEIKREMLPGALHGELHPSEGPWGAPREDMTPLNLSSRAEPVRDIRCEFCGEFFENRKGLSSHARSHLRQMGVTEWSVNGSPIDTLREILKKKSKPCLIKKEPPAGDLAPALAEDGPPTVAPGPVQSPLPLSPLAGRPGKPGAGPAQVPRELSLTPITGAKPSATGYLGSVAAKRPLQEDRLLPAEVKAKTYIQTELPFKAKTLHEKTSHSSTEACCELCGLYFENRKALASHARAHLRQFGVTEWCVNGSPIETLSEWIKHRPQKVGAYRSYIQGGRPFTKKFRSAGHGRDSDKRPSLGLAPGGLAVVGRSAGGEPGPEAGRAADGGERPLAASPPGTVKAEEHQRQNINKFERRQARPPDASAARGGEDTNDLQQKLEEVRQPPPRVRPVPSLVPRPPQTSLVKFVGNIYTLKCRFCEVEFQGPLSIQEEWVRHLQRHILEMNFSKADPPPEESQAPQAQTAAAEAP
T1 sequence (Q96SW2 whole entry): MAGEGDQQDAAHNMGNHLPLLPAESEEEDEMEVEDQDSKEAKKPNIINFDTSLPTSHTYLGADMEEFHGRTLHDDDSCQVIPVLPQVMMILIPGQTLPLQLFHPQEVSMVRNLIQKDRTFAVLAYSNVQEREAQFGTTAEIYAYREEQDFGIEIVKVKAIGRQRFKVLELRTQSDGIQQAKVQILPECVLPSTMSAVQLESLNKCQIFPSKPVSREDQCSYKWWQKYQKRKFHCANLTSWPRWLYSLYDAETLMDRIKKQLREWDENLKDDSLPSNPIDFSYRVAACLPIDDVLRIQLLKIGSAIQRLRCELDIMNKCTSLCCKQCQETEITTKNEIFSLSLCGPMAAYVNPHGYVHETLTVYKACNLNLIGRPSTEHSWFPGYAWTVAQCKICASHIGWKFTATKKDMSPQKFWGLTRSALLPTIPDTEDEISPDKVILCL
T1 sequence (Q16531 whole entry partner): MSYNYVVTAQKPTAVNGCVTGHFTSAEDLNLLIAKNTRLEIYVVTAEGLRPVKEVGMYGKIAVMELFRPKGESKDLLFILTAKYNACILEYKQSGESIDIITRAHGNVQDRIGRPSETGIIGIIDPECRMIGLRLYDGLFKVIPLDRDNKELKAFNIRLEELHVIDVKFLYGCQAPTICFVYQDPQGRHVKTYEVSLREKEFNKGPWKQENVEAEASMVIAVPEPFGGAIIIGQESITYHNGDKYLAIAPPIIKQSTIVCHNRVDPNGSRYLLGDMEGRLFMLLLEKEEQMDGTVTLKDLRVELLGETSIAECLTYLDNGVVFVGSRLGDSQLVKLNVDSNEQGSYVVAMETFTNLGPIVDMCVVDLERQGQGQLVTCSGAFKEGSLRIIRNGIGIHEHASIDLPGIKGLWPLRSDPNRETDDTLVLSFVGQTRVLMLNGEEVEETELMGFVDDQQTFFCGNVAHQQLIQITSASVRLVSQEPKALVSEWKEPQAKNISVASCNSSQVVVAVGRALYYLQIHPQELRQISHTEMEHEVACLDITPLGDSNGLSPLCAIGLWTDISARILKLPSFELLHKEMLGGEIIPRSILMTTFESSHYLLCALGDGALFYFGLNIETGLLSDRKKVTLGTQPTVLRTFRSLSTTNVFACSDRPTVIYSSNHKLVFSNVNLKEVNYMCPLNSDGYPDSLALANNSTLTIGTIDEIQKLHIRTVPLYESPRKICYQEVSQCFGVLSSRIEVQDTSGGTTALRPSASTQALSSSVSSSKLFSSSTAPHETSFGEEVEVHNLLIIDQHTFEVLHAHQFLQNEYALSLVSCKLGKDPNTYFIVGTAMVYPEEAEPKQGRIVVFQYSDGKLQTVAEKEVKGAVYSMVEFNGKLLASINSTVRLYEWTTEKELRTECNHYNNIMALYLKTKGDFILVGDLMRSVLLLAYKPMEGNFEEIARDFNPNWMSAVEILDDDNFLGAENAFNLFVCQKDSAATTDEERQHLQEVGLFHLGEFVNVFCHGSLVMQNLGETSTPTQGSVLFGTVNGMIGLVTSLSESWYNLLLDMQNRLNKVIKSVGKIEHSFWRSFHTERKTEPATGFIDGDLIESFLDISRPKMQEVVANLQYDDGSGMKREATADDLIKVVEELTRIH

For `CC(C)(C)OC(=O)N1CCN(Cc2ccc3onc(N4CCC(=O)NC4=O)c3c2)CC1(C)C` [Example 91, tert-butyl 4-((3-(2,4-dioxotetrahydropyrimidin-1(2H)-yl)benzo[d]isoxazol-5-yl)methyl)-2,2-dimethylpiperazine-1-carboxylate], the Dmax at 25 µM was determined as 81%, the remaining activity at 25 µM came to 19% and the DC50 came out at 298 nM.

Turning to `CN1C[C@@H]2C[C@H]1CN2Cc1ccc2onc(N3CCC(=O)NC3=O)c2c1` [Example 94], the Dmax at 25 µM came out at 76%, the remaining activity at 25 µM is 24% and the DC50 amounted to 364 nM.

Consider `CC(C)(C)OC(=O)N1C[C@H]2C[C@@H]1CN2Cc1ccc2onc(N3CCC(=O)NC3=O)c2c1` [Example 96, tert-butyl (1R,4R)-5-((3-(2,4-dioxotetrahydropyrimidin-1(2H)-yl)benzo[d]isoxazol-5-yl)methyl)-2,5-diazabicyclo[2.2.1]heptane-2-carboxylate], for which the Dmax at 25 µM came to 66%, the remaining activity at 25 µM is 34% and the DC50 amounted to 1090 nM.

Consider `O=C1CCN(c2noc3ccc(CC4CCCNCC4)cc23)C(=O)N1` (stereo not drawn) [Example 52, 1-(5-(azepan-4-ylmethyl)benzo[d]isoxazol-3-yl)dihydropyrimidine-2,4(1H,3H)-dione], for which the Dmax at 25 µM turned out to be 86%, the remaining activity at 25 µM was 14% and the DC50 was determined as 57 nM.

As to `CC(C)(C)OC(=O)N1[C@@H]2CC[C@H]1CN(Cc1ccc3onc(N4CCC(=O)NC4=O)c3c1)C2` [Example 99, tert-butyl (1R,5S)-3-((3-(2,4-dioxotetrahydropyrimidin-1(2H)-yl)benzo[d]isoxazol-5-yl)methyl)-3,8-diazabicyclo[3.2.1]octane-8-carboxylate], the Dmax at 25 µM is 74%, the remaining activity at 25 µM worked out at 26% and the DC50 turned out to be 450 nM.

In the case of `O=C1CCN(c2noc3ccc(CC4CCN(Cc5cccnc5)CC4)cc23)C(=O)N1` [Example 4, 1-(5-((1-(pyridin-3-ylmethyl)piperidin-4-yl)methyl)benzo[d]isoxazol-3-yl)dihydropyrimidine-2,4(1H,3H)-dione], the Dmax at 25 µM came out at 92%, the remaining activity at 25 µM came to 8% and the DC50 came to 33 nM.

Take `O=C1CCN(c2noc3ccc(CC4CCNCC4)cc23)C(=O)N1` [Example 1b, 1-(5-(piperidin-4-ylmethyl)benzo[d]isoxazol-3-yl)dihydropyrimidine-2,4(1H,3H)-dione hydrochloride]: the Dmax at 25 µM was determined as 88%, the remaining activity at 25 µM is 12% and the DC50 turned out to be 210 nM.

As for `C[C@H]1CN(Cc2ccc3onc(N4CCC(=O)NC4=O)c3c2)CCN1CC1CCOCC1` [Example 31, (S)-1-(5-((3-methyl-4-((tetrahydro-2H-pyran-4-yl)methyl)piperazin-1-yl)methyl)benzo[d]isoxazol-3-yl)dihydropyrimidine-2,4(1H,3H)-dione], the Dmax at 25 µM stood at 91%, the remaining activity at 25 µM came to 9% and the DC50 stood at 6.9 nM.

As to `C[C@@H]1CN(C(=O)N2CCCC2)CCN1Cc1ccc2onc(N3CCC(=O)NC3=O)c2c1` [Example 75, (R)-1-(5-((2-methyl-4-(pyrrolidine-1-carbonyl)piperazin-1-yl)methyl)benzo[d]isoxazol-3-yl)dihydropyrimidine-2,4(1H,3H)-dione], the Dmax at 25 µM was 78%, the remaining activity at 25 µM is 22% and the DC50 was determined as 132 nM.

Regarding `CC(C)CN1CCN(Cc2ccc3onc(N4CCC(=O)NC4=O)c3c2)[C@@H](C)C1` [Example 32, (S)-1-(5-((4-isobutyl-2-methylpiperazin-1-yl)methyl)benzo[d]isoxazol-3-yl)dihydropyrimidine-2,4(1H,3H)-dione], the Dmax at 25 µM was found to be 91%, the remaining activity at 25 µM is 9% and the DC50 is 99 nM.

(Values after patent US20250276964A1 (Novartis AG, priority 2021, published 2025).)
